One data set concerns chenopodium album L. Briefly: herbicidal activity, soil treatment one day after sowing. It counts as in vivo.
For another data set, the system named is pisum sativum L. (pea). Briefly: activity on agrarian species, soil treatment one day after sowing. The class given is in vivo.
The next data set deals with setaria glauca L. Briefly: herbicidal activity, soil treatment one day after sowing. It counts as in vivo.
Data set [1] concerns amaranthus retroflexus L. The description is as above. It counts as in vivo.
Data set [2] relates to echinocloa crus-galli R.S. Described as above. It counts as in vivo.
Another data set concerns avena sativa (oats). Briefly: activity on agrarian species, soil treatment one day after sowing. The class given is in vivo, Avena sativa L.
Data set [3] has as its system triticum vulgare L. (wheat). Described as above. It counts as in vivo. The method, boiled down:
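Pre-emergence soil treatment one day after sowing of wheat, product applied at 1, 3, 6, 8, 10, 12 and 14 kg/ha. Activity scored visually on a 0–4 scale relative to untreated control (0 = none, 4 = no germination/total containment); intermediate activity recorded as both values.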

Another data set deals with oryza sativa L. (rice). The data set is described as above. The class given is in vivo. The method, boiled down:
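Pre-emergence soil treatment of rice applied one day after sowing at 1, 3, 6, 8, 10, 12 and 14 kg/ha. Crop injury scored against untreated control on a 0–4 scale, 4 being no germination or total containment at emergence; intermediate activity recorded as both adjacent classes.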

A further data set has as its system artemisia vulgaris L. Description: herbicidal activity, soil treatment one day after sowing. The class given is in vivo.
In data set [4] the test system is phaseolus vulgaris (bean). Briefly: activity on agrarian species, soil treatment one day after sowing. It counts as in vivo, Phaseolus vulgaris L. The method, boiled down:
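Product applied to soil one day after sowing at 1, 3, 6, 8, 10, 12 and 14 kg/ha. Effect on bean plants scored against control on a 0–4 scale, 4 meaning no germination or total containment at emergence; intermediate activity recorded with both values.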

The next data set deals with zea mais L. (corn). Described as above. It counts as in vivo. The method, boiled down: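 Pre-emergence soil application one day after sowing at 1, 3, 6, 8, 10, 12 and 14 kg/ha. Crop damage scored visually against untreated control on a 0–4 scale (0 = no effect, 4 = no germination or total containment at emergence); intermediate effects recorded with both scores.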
The next data set concerns vicia sativa L. Description: herbicidal activity, soil treatment one day after sowing. The class given is in vivo. The method, boiled down:
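Pre-emergence soil treatment one day after sowing; activity scored visually on a […] scale against untreated control, from slight difference (1) to no germination or total containment at emergence (4); intermediate activity recorded as both classes, preeminent value first.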

The test system of the next data set is rice. Description: Example 2 basin test, rice-field soil, granular composition. The following applies: 4 - 6 - 8 kg/ha. The class given is in vivo. The protocol: (§1) Into 2 sq.m. basins containing rice-field soil were sown rice and Echinocloa crus-galli. After having submerged the soil with 10 cm of water, treatments were carried out by distributing uniformly on the soil a granular composition containing 5% of PA 300 and 95% of bentonite in doses equal to 0 - 4 - 6 - 8 kg of active principle per hectar.

The next data set concerns Echinocloa crus-galli. Described as above. The following applies: 4 - 6 - 8 kg/ha. The class given is in vivo. The protocol: as §1
Data set [5] in a line: toxicity towards warm-blooded animals, LD 50 per os on rat. The note with it: in vivo, po.

SMILES strings stand for the structures.

Consider `CCC(C)N(C(=O)c1cc(Cl)cc(Cl)c1Cl)C(C)CC` (stereo not drawn) [PA300, 2,3,5-trichloro-N,N-di-sec.butyl-benzamide], for which the “activity on C, 0-4 scale” value with chenopodium album L. (1 kg/ha) was 0-1; in the data set with chenopodium album L. (2 kg/ha) it was 1; with chenopodium album L. (4 kg/ha), 1-2; in the data set on chenopodium album L. (6 kg/ha) it was 1-2. Besides, the “activity on L, 0-4 scale” value with pisum sativum L. (pea) (3 kg/ha) and with pisum sativum L. (pea) (6 kg/ha) was 0 throughout. Further, the “activity on E, 0-4 scale” value is listed as 3-4 with setaria glauca L. (1 kg/ha), 4-3 with setaria glauca L. (2 kg/ha), 4 in the data set on setaria glauca L. (4 kg/ha) and 4 with setaria glauca L. (6 kg/ha). Also, the “activity on A, 0-4 scale” value was 0-1 in [1] (1 kg/ha), 1 in data set [1] (2 kg/ha), 1 in data set [1] (4 kg/ha) and 1 in [1] (6 kg/ha). Also, the “activity on D, 0-4 scale” value in data set [2] (1 kg/ha) is 3; in data set [2] (2 kg/ha) it was 3-4; in [2] (4 kg/ha) it was 4-3; in [2] (6 kg/ha) it was 4. Moreover, the “activity on G, 0-4 scale” value was 0 in the data set with avena sativa (oats) (3 kg/ha) and 1 in the data set on avena sativa (oats) (6 kg/ha). Also, the “activity on N, 0-4 scale” value in [3] (3 kg/ha) and in [3] (6 kg/ha) was 0 throughout. The “activity on P, 0-4 scale” value in the data set with oryza sativa L. (rice) (3 kg/ha) and with oryza sativa L. (rice) (6 kg/ha) was 0 throughout. For the same compound, the “activity on B, 0-4 scale” value was 0-1 in the data set on artemisia vulgaris L. (1 kg/ha), 1-0 with artemisia vulgaris L. (2 kg/ha), 1 in the data set on artemisia vulgaris L. (4 kg/ha) and 1 in the data set with artemisia vulgaris L. (6 kg/ha). In addition, the “activity on I, 0-4 scale” value in [4] (3 kg/ha) and in [4] (6 kg/ha) was 0 throughout. The “activity on O, 0-4 scale” value with zea mais L. (corn) (3 kg/ha) and in the data set with zea mais L. (corn) (6 kg/ha) was 0 in each case. For the same compound, the “activity on F, 0-4 scale” value in the data set on vicia sativa L. (1 kg/ha), in the data set with vicia sativa L. (2 kg/ha), in the data set with vicia sativa L. (4 kg/ha) and in the data set with vicia sativa L. (6 kg/ha) was 0 in each case. For the same compound, the development of rice result with rice is “the rice developed regularly”. Besides, in the data set with Echinocloa crus-galli, the “development of Echinocloa crus-galli plants” value is on record as “no Echinocloa crus-galli plant developed”.

Regarding `CCC(C)N(CC)C(=O)c1ccc(Cl)c(Cl)c1` (stereo not drawn) [PA631, 3,4-dichloro-N-ethyl,N-sec.butyl-benzamide], the “activity on C, 0-4 scale” value in the data set with chenopodium album L. (6 kg/ha) is recorded as 3. In addition, in the data set with setaria glauca L. (6 kg/ha), the “activity on E, 0-4 scale” value is on record as 3. Besides, the “activity on A, 0-4 scale” value in data set [1] (6 kg/ha) turned out to be 2. In data set [2] (6 kg/ha), the “activity on D, 0-4 scale” value was found to be 3. Moreover, the median lethal dose (LD50) (commonly the dose at which mortality reaches 50%) in data set [5] was determined as 930 mg/kg. For the same compound, the “activity on B, 0-4 scale” value in the data set on artemisia vulgaris L. (6 kg/ha) is on record as 2. Moreover, the “activity on F, 0-4 scale” value in the data set on vicia sativa L. (6 kg/ha) is recorded as 0-1.

These data come from patent US3982931A, “N,N-di-sec.butyl-benzamide herbicides” (priority 1967, dated 1976).
